pIC50: −log10 of the molar value.
Tests used:
[1] = biological target: T1, Prostaglandin G/H synthase 1 (Ovis aries, UniProt P05979); test: Inhibition of ovine COX1 pre-incubated for 15 mins followed by addition of heme and fluorometric substrate and further incubated for 15 mins in presence of arachidonic acid by fluorescence based assay
T1 sequence (P05979 whole entry): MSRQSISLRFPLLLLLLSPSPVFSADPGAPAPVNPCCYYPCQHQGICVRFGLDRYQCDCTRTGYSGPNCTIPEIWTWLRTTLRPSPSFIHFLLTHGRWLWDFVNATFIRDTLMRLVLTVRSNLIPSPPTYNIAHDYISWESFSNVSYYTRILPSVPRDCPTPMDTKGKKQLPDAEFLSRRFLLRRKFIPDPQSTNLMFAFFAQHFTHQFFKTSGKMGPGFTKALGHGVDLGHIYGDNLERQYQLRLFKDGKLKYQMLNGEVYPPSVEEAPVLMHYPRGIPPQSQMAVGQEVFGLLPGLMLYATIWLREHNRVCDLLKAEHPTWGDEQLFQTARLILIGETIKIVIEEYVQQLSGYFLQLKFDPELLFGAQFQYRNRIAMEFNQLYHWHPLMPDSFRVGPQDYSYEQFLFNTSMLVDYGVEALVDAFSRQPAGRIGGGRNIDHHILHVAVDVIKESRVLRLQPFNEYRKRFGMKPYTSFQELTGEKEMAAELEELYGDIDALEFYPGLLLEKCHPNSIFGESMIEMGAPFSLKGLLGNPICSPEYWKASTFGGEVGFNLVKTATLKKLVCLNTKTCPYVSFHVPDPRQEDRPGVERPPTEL

[2] = biological target: T2, Prostaglandin G/H synthase 2 (Homo sapiens, UniProt P35354); test: Inhibition of human recombinant COX2 pre-incubated for 15 mins followed by addition of heme and fluorometric substrate and further incubated for 15 mins in presence of arachidonic acid by fluorescence based assay
T2 sequence (P35354 whole entry): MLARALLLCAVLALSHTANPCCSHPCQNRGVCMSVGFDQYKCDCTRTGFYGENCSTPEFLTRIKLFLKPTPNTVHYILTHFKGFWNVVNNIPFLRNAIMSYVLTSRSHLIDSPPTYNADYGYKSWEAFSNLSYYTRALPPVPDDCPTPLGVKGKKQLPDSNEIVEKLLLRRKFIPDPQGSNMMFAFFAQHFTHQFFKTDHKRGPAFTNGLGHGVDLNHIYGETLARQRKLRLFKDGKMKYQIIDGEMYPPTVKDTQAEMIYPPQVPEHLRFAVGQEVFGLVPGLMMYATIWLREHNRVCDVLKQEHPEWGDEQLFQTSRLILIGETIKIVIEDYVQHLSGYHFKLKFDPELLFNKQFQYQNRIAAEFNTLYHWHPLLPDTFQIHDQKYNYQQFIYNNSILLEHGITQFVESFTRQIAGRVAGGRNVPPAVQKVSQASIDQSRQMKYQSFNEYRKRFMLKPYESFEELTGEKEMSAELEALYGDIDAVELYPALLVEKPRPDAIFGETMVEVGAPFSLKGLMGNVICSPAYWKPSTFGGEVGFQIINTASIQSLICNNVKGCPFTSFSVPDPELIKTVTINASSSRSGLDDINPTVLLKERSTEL

IC50 [1]	pIC50 [2]	pIC50 ([1]; read-out: IC50)	Compound
Not Active	5.59		CC(=O)NCCc1ccc2c(c1)O[C@H](NC(C)=O)[C@@H](c1ccc(O)c(O)c1)O2
Not Active	5.22		CCOC1(c2ccc(O)c(O)c2)Oc2ccc(CCO)cc2OC1O (stereo unspecified)
Not Active	5.60		CCO[C@@]1(c2ccc(O)c(O)c2)Oc2ccc(CCO)cc2O[C@@H]1O
Not Active	4.75		CO[C@@]1(c2ccc(O)c(O)c2)Oc2cc(CCO)ccc2O[C@@H]1O
Not Active	5.08		CO[C@@]1(c2ccc(O)c(O)c2)Oc2ccc(CCO)cc2O[C@@H]1O
Not Active	5.07		CCO[C@]1(c2ccc(O)c(O)c2)Oc2cc(CCO)ccc2O[C@H]1O
Not Active	4.86		CCO[C@@]1(c2ccc(O)c(O)c2)Oc2cc(CCO)ccc2O[C@@H]1O
Not Active	5.60		CC(=O)N[C@H]1Oc2ccc(CCO)cc2O[C@@H]1c1ccc(O)c(O)c1 (relative stereo)
Not Active	5.01		CO[C@]1(c2ccc(O)c(O)c2)Oc2cc(CCO)ccc2O[C@H]1O
Not Active	5.89		CC(=O)N[C@H]1Oc2cc(CCO)ccc2O[C@@H]1c1ccc(O)c(O)c1 (relative stereo)
Not Active	5.44		CC(=O)NCCc1ccc2c(c1)O[C@H](c1ccc(O)c(O)c1)[C@@H](NC(C)=O)O2 (relative stereo)
	5.57	4.86	CC(=O)/N=C/Cc1ccc2c(c1)O[C@H](c1ccc(O)c(O)c1)[C@@H](NC(C)=O)O2 (relative stereo)
Not Active	5.22		CO[C@]1(c2ccc(O)c(O)c2)Oc2ccc(CCO)cc2O[C@H]1O

From ChEMBL document CHEMBL3425477, “Compounds from the insect Blaps japanensis with COX-1 and COX-2 inhibitory activities” (Bioorg Med Chem Lett, 2015)
